In US20080009435A1, “Synthetic methods for aplidine and new antitumoral derivatives, methods of making and using them” (Pharma Mar, S.A., a Spain corporation, priority 2000, published 2008):
*1 amine or outer side, *2 acyl side, *3 side chain or, on linkers, in order; H or OH if unused. Where a SMILES comes first, the peptide text is derived from it. Bridges are numbered along the chain shown (N, C = ends). [ ]: non-standard residue; d: D form. The star is where a group is joined. X2 = CC[C@H](C)[C@@H](N[*:1])[C@@H](O)CC(=O)[*:2]; NMeY = CN[C@@H](Cc1ccc(O)cc1)C(=O)O; dNMeL = CN[C@H](CC(C)C)C(=O)O; Pyruvoyl = CC(=O)C(=O)*

What was measured:
tumor cells = assay: In vitro antitumor activity; type: cell-based
P388 Murine lymphoma = assay: Cytotoxicity IC50 (after Berjeron et al); details: Mus musculus, P388, read-out: Cytotoxicity of [aa3]-aplidine Congeners IC50 (Molar) P388
Text: (§1) Methodology: after Berjeron et al, Biochem and Bioph Res. Comm., 1984, 121, 3, 848-854.
(§2) P388=Murine lymphoma. A549=human lung carcinoma. HT-29=human colon carcinoma. MEL-28=human melanoma.
(§3) A549=human lung carcinoma. HT-29=human colon carcinoma. MEL-28=human melanoma.

[1] = system: A549 human lung carcinoma; assay: Cytotoxicity IC50 (after Berjeron et al); details: Homo sapiens, A549, read-out: Cytotoxicity of [aa3]-aplidine Congeners IC50 (Molar) A549
Text: as §1, §2, §3

[2] = system: HT-29 human colon carcinoma; assay: Cytotoxicity IC50 (after Berjeron et al); details: Homo sapiens, HT-29, read-out: Cytotoxicity of [aa3]-aplidine Congeners IC50 (Molar) HT29
Text: as §1, §2, §3

MEL-28 human melanoma = assay: Cytotoxicity IC50 (after Berjeron et al); details: Homo sapiens, SK-MEL-28, read-out: Cytotoxicity of [aa3]-aplidine Congeners IC50 (Molar) MEL28
Text: as §1, §2, §3

[3] = system: tumor cells (clonogenic assays); details: compared with III (didemnin B); cited from earlier work
protein biosynthesis = details: compared with III (didemnin B); cited from earlier work
pancreatic carcinoma = details: compared with III (didemnin B); cited from earlier work
NCI 60 cell panel = details: cited from earlier work

| Compound | in vitro antitumor activity (tumor cells) | IC50 (P388 Murine lymphoma) | IC50 [1] | IC50 [2] | IC50 (MEL-28 human melanoma) | in vitro antitumor activity in clonogenic assays [3] | protein biosynthesis inhibition properties (protein biosynthesis) | in vitro activity against pancreatic carcinoma (pancreatic carcinoma) | tumor type specificity in NCI 60 cell panel (NCI 60 cell panel) |
| --- | --- | --- | --- | --- | --- | --- | --- | --- | --- |
| CC[C@H](C)[C@H]1NC(=O)[C@@H](NC(=O)[C@@H](CC(C)C)N(C)C(=O)[C@@H]2CCCN2C(=O)C(C)=O)[C@@H](C)OC(=O)[C@H](Cc2ccc(OC)cc2)N(C)C(=O)[C@@H]2CCCN2C(=O)[C@H](CC(C)C)NC(=O)[C@H](C(C)C)NC(=O)C[C@@H]1O [SVPL1, [Val]^3-Aplidine] (Pyruvoyl-P[dNMeL]T[X2]VLP[NMeY](Me); ester 3-C) | high level of in vitro antitumor activity | 0.113 nM | 0.113 nM | 0.113 nM | 0.113 nM |  |  |  |  |
| [Hiv]^3-[L-Lac]^9-aplidine [9LSHPL1(L)] |  |  |  |  |  | retains similar levels of in vitro antitumor activity | retains similar levels | somewhat more active in vitro than III | does not show any tumor type specificity |
